# From patent US20070128217A1 (priority 2003, published 2007)
# Experiments:
# [1] = test system: antibodies in sera from SARS patients (sera 1a, 1b, 2, 6, 37, 62, London, SARS-yellow, SARS-green); type: binding, human; design: Binding of serum 6 to linear peptides of protein X1 of SARS-CoV Urbani / Binding of serum 37 to linear peptides of protein X1 of SARS-CoV Urbani / Binding of serum 6 to looped/cyclic peptide (PEPSCAN-ELISA) / Binding of serum 37 to looped/cyclic peptide (PEPSCAN-ELISA) / Binding of serum 37 to looped/cyclic peptides of protein X1 of SARS-CoV Urbani / Binding of serum 6 to linear peptides of protein X2 / Binding of serum 37 to linear peptides of protein X2 / Binding of serum 37 to looped/cyclic peptides of protein X2 of SARS-CoV Urbani / Binding of serum 6 to linear peptides of protein M of SARS-CoV Urbani / Binding of serum 37 to linear peptides of protein M of SARS-CoV Urbani / Binding of serum 6 to looped/cyclic peptides of protein M of SARS-CoV Urbani / Binding of serum 37 to looped/cyclic peptides of protein M of SARS-CoV Urbani / Binding of serum 6 to linear peptides of protein X3 of SARS-CoV Urbani / Binding of serum 37 to linear peptides of protein X3 of SARS-CoV Urbani / Binding of serum 37 to looped/cyclic peptides of protein X3 of SARS-CoV Urbani / Binding of serum 6 to linear peptides of protein X4 of SARS-CoV Urbani / Binding of serum 37 to linear peptides of protein X4 of SARS-CoV Urbani / Binding of serum 37 to looped/cyclic peptides of protein X4 of SARS-CoV Urbani / Binding of serum 6 to linear peptides of protein X5 of SARS-CoV Urbani / Binding of serum 37 to linear peptides of protein X5 of SARS-CoV Urbani / Binding of serum 37 to looped/cyclic peptides of protein X5 of SARS-CoV Urbani / Binding of serum 6 to linear peptides of protein N of SARS-CoV Urbani / Binding of serum 37 to linear peptides of protein N of SARS-CoV Urbani / Binding of serum 6 to linear peptide (PEPSCAN-ELISA) / Binding of serum 1a to looped/cyclic peptides of protein N of SARS-CoV Urbani / Binding of serum 1b to looped/cyclic peptides of protein N of SARS-CoV Urbani / Binding of serum 2 to looped/cyclic peptides of protein N of SARS-CoV Urbani / Binding of serum 6 to looped/cyclic peptides of protein N of SARS-CoV Urbani / Binding of serum 37 to looped/cyclic peptides of protein N of SARS-CoV Urbani / Binding of serum 62 to looped/cyclic peptides of protein N of SARS-CoV Urbani / Binding of serum London to looped/cyclic peptides of protein N of SARS-CoV Urbani / Binding of serum SARS-green to looped/cyclic peptides of protein N of SARS-CoV Urbani: unit not given here
# [2] = test system: control sera (pooled serum of ten healthy LUMC hospital workers; commercial negative donor pooled serum from the Dutch bloodbank); type: binding, human; design: Binding of Control serum LUMC to linear peptides / Binding of Control serum Blood-bank to linear peptides / Binding of Control serum LUMC to looped peptides / Binding of Control Serum Blood-Bank to Looped peptides / Binding of Control serum LUMC to linear peptides of the protein M of SARS-CoV Urbani / Binding of Control serum Blood-bank to linear peptides of the protein M of SARS-CoV Urbani / Binding of Control serum LUMC to looped peptides of the protein M of SARS-CoV Urbani / Binding of Control Serum Blood-Bank to Looped peptides of the protein M of SARS-CoV Urbani: unit not given here
# [3] = test system: rabbit serum obtained by immunizing a rabbit with the SARS-CoV strain Frankfurt 1; type: binding; design: Binding of a rabbit serum to linear peptides / Binding of a rabbit serum to looped peptides / Rabbit serum linear peptides / Rabbit serum looped peptides / Binding of a rabbit serum to linear peptides of protein N of SARS-CoV Urbani (Rabbit serum linear peptides) / Binding of a rabbit serum to looped/cyclic peptides of protein N of SARS-CoV Urbani (Rabbit serum looped peptides): unit not given here
# [4] = test system: recombinant human anti-SARS-CoV antibody 03-018; type: binding; design: Binding of antibody 03-018 to linear peptides of the N protein of SARS-CoV Urbani / Binding of antibody 03-018 to looped/cyclic peptides of the N protein of SARS-CoV Urbani: unit not given here
Sequence,Binding of serum 1a to looped/cyclic peptides of protein N of SARS-CoV Urbani [1],Binding of serum 1b to looped/cyclic peptides of protein N of SARS-CoV Urbani [1],Binding of serum 2 to looped/cyclic peptides of protein N of SARS-CoV Urbani [1],Binding of serum 6 to looped/cyclic peptides of protein N of SARS-CoV Urbani [1],Binding of serum 37 to looped/cyclic peptides of protein N of SARS-CoV Urbani [1],Binding of serum 62 to looped/cyclic peptides of protein N of SARS-CoV Urbani [1],Binding of serum London to looped/cyclic peptides of protein N of SARS-CoV Urbani [1],Binding of serum SARS-green to looped/cyclic peptides of protein N of SARS-CoV Urbani [1],Binding of serum SARS-yellow to looped/cyclic peptides of protein N of SARS-CoV Urbani [1],Binding of a rabbit serum to linear peptides of protein N of SARS-CoV Urbani (Rabbit serum linear peptides) [3],Binding of a rabbit serum to looped/cyclic peptides of protein N of SARS-CoV Urbani (Rabbit serum looped peptides) [3],Binding of antibody 03-018 to linear peptides of the N protein of SARS-CoV Urbani [4],Binding of antibody 03-018 to looped/cyclic peptides of the N protein of SARS-CoV Urbani [4],Binding of serum 1a to linear peptides of protein N of SARS-CoV Urbani [1],Binding of serum 1b to linear peptides of protein N of SARS-CoV Urbani [1],Binding of serum 2 to linear peptides of protein N of SARS-CoV Urbani [1],Binding of serum 6 to linear peptides of protein N of SARS-CoV Urbani [1],Binding of serum 37 to linear peptides of protein N of SARS-CoV Urbani [1],Binding of serum 62 to linear peptides of protein N of SARS-CoV Urbani [1],Binding of serum London to linear peptides of protein N of SARS-CoV Urbani [1],also measured
PKGFYAEGSRGGSQA,0.3,0.3,0.3,0.2,0.4,0.5,0.3,0.4,0.2,0.1,0.1,0.1,0.2,,,,,,,,Binding of serum 1a to linear peptide (PEPSCAN-ELISA) [1]: 0.3; Binding of serum 1b to linear peptide (PEPSCAN-ELISA) [1]: 0.1; Binding of serum 2 to linear peptide (PEPSCAN-ELISA) [1]: 0.2; Binding of serum 6 to linear peptide (PEPSCAN-ELISA) [1]: 0.2; Binding of serum 37 to linear peptide (PEPSCAN-ELISA) [1]: 0.6; Binding of serum 62 to linear peptide (PEPSCAN-ELISA) [1]: 0.6; Binding of serum London to linear peptide (PEPSCAN-ELISA) [1]: 0.5; Binding of serum SARS-green to linear peptide (PEPSCAN-ELISA) [1]: 0.0; Binding of serum SARS-yellow to linear peptide (PEPSCAN-ELISA) [1]: 0.5; Binding of Control Serum Blood-Bank to Looped peptides [2]: 0.5; Binding of Control serum Blood-bank to linear peptides [2]: 0.8; Binding of Control serum LUMC to linear peptides [2]: 0.7; Binding of Control serum LUMC to looped peptides [2]: 0.5
PKKDKKKKTDEAQPL,0.2,0.1,0.2,0.1,0.4,0.3,0.3,0.1,0.2,0.1,0.0,0.1,0.2,0.2,0.1,2.5,0.2,0.7,0.7,0.5,Binding of serum SARS-green to linear peptides of protein N of SARS-CoV Urbani [1]: 0.1; Binding of serum SARS-yellow to linear peptides of protein N of SARS-CoV Urbani [1]: 0.5; Control Serum Blood-Bank Looped peptides [2]: 0.4; Control serum Blood-bank linear peptides [2]: 0.8; Control serum LUMC linear peptides [2]: 0.8; Control serum LUMC looped peptides [2]: 0.3
PKQRRPQGLPNNTAS,0.5,0.5,0.8,0.4,0.8,0.7,0.6,3.1,0.9,0.2,0.2,0.2,0.3,0.2,0.1,0.4,0.2,0.9,0.7,0.6,Binding of serum SARS-green to linear peptides of protein N of SARS-CoV Urbani [1]: 0.6; Binding of serum SARS-yellow to linear peptides of protein N of SARS-CoV Urbani [1]: 0.6; Binding of Control Serum Blood-Bank to Looped peptides [2]: 0.8; Binding of Control serum Blood-bank to linear peptides [2]: 0.8; Binding of Control serum LUMC to linear peptides [2]: 0.7; Binding of Control serum LUMC to looped peptides [2]: 1.0
PLPQRQKKQPTVTLL,,,,,,,,,,0.1,0.7,0.1,0.3,0.2,0.1,0.2,0.2,0.5,0.6,1.0,"Binding of serum SARS-green to linear peptides of protein N of SARS-CoV Urbani [1]: 0.2; Binding of serum SARS-yellow to linear peptides of protein N of SARS-CoV Urbani [1]: 1.0; Recognition of the peptide by sera of SARS-CoV infected individuals, and form (linear, looped/cyclic) in which it is recognized [1]: recognized in looped/cyclic form; Control Serum Blood-Bank Looped peptides [2]: 1.1; Control serum Blood-bank linear peptides [2]: 0.7; Control serum LUMC linear peptides [2]: 0.5; Control serum LUMC looped peptides [2]: 1.1"
